Test results reported in patent US11911399B2, “Treating and preventing disease with TMA and TMAO lowering agents” (The Cleveland Clinic Foundation, priority 2014, dated 2024).
Entries after “also recorded” stand apart in the source; their conditions may differ. Like-named read-outs stand apart in the source and are kept apart here.

How the values were obtained:
[1] = Plasma TMAO in mice on chow or choline diet with or without ASA (LC/MS/MS); type: in vivo, C57BL/6J females mice; conditions: both diets (chow and choline), p<0.05 in each diet
microbial TMA lyase = test: TMA lyase activity of Proteus mirabilis lysate (TMA production from d9 substrates); type: biochemical
Method: Using PM lysate (PM that is lysed in a French press to break open the cell wall and release enzyme contents) as the enzyme source, the TMA lyase activity (TMA producing activity) was examined in incubations with either d9(trimethyl)choline as substrate, or […] (GPC) as substrate. […] A further examination of the impact of ASA on TMA lyase activity by PM lysate was undertaken. Three mg of PM lysate was incubated with 25 uM choline and 25 uM choline(d9) in 2 ml PBS at 37 C for 20 hours. In FIG. 7, the dotted lines at 81 mg and 320 mg ASA represent reported steady state plasma levels of aspirin reported at those doses in human subjects. […] In light of this, in some embodiments, enteric coated aspirin or aspirin derivatives that have delayed absorption may be employed to treat disease since they would dissolve in the intestines past the stomach, such that the level of ASA or derivative delivered to the gut lumen will be higher. There exist even longer delayed release formulations of medications that could also be used.

platelet aggregation = test: Platelet aggregometry with submaximal ADP stimulation in human subjects
Method: In further works, human volunteer subject were enrolled in the following study. Individuals were examined at baseline for plasma TMAO and blood drawn for platelet aggregometry studies with submaximal ADP stimulation. Subjects were examined both naïve to aspirin, and then at different time after taking chronic aspirin (81 mg daily) for at least a month. […] After washout period of at least 4 months with no choline supplement, subjects were placed on ASA daily (81 mg) and after a month of ASA, the baseline TMAO level and platelet aggregmetry measure monitored. Then, choline supplementation daily was again resumed.
Choline supplement was used in subjects (choline bitartrate, 2×500 mg/day=choline 2×205.7 mg/day), for 2 month period. Samples were collected at baseline and monthly blood were draw (1,2 months). Plasma levels of TMAO were measured and platelet aggregation in response to 5 uM ADP were measured.

[2] = system: in vivo thrombosis potential
[3] = omnivores, ASA 81 mg daily for at least a month, then daily choline supplementation
[4] = system: parenchymal fibrosis and collagen deposition in mouse kidneys; test: Renal fibrosis, Mason trichrome quantitative morphometry; type: in vivo, C57BL/6J mice; conditions: 6 weeks diet: TMAO 0.12% or choline 1.0% vs chow
Excerpt: Quantitative Histologic Techniques.

SMAD3 = test: Immunoblot of Smad3 phosphorylation in mouse kidneys; type: in vivo, C57BL/6J mice; conditions: 6 weeks diet: TMAO 0.12% or choline 1.0% vs chow
Excerpt: (§1) Preparation of tissue homogenates and immunoblotting.

KIM-1 = test: Immunoblot of KIM-1 expression in mouse kidneys; type: in vivo, C57BL/6J mice; conditions: 6 weeks diet: TMAO 0.12% or choline 1.0% vs chow
Excerpt: as §1

cystatin C = test: Cystatin C levels in mice (ELISA); type: in vivo; conditions: 16 weeks diet: TMAO 0.12% or choline 1.0% vs chow

Structure (SMILES) | reduction in TMAO level by addition of ASA [1] | TMA lyase inhibition (microbial TMA lyase; 3 mg PM lysate, 25 uM choline and 25 uM choline(d9), 37 C, 20 hours, at ASA plasma level anticipated for 320 mg dose) | inhibition of TMA production (choline TMA lyase activity) (microbial TMA lyase; PM lysate, d9(trimethyl)choline as substrate, physiological range of ASA) | inhibition of TMA production (GPC TMA lyase activity) (microbial TMA lyase; PM lysate, d9(trimethyl)glycerophosphocholine (GPC) as substrate, physiological range of ASA) | rise in platelet aggregation on choline supplementation (platelet aggregation; omnivores, ASA 81 mg daily, submaximal ADP stimulation) | time to blood flow cessation ([2]; choline diet+ASA group vs control (chow and no ASA)) | rise in plasma TMAO on choline supplementation [3] | parenchymal fibrosis and collagen deposition [4] | phosphorylation of Smad3 (serine 423/425) (SMAD3) | kidney injury marker-1 (KIM-1) (KIM-1) | serum cystatin C levels (cystatin C) | platelet aggregometry (platelet aggregation; human, in vivo) | time to blood flow cessation ([2]; choline diet alone vs chow, p<0.0001)
CC(=O)Oc1ccccc1C(=O)O [ASA, acetylsalicylic acid] | approx. 2 fold | approximately 40% | inhibited TMA production; also recorded: inhibits | inhibited TMA production; also recorded: inhibits | corresponding rise in platelet aggregation too was blunted | no difference in time to blood flow cessation relative to the control | The impact of the choline diet on rise in TMAO was blunted | – | – | – | – | – | –
C[N+](C)(C)[O-] [TMAO, trimethylamine N-oxide] | – | – | – | – | – | – | – | corresponding increases in parenchymal fibrosis and collagen deposition | enhanced phosphorylation of Smad3 | increased kidney injury marker-1 | increased serum cystatin C levels compared to chow-fed mice | – | –
C[N+](C)(C)CCO [choline] | – | – | – | – | – | – | – | corresponding increases in parenchymal fibrosis and collagen deposition | enhanced phosphorylation of Smad3 | increased kidney injury marker-1 | increased serum cystatin C levels compared to chow-fed mice | corresponding increases in platelet aggregometrry | reduces the time to blood flow cessation
